# Measured values reported in US20050282840A1, “Methods of modulating neurotrophin-mediated activity” (PainCeptor Pharma Corporation, priority 2004, published 2005).
# Where two headings read alike, the source gives them in different places.
# How the values were obtained:
# [1] = test system: p75^NTR receptors (PC12 cells); assay: Basic screening assay: binding of 125I-NGF to PC12 cells; details: test compound 50 μM, 0.5 nM 125I-NGF, PC12 cells, 2 h at 4° C., specific binding as percent of control
# How it was run: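 Inhibition of 0.5 nM 125I-NGF binding to p75NTR on PC12 cells was measured with compounds at 50 μM during 2 h rotation at 4° C. Cell-bound radioactivity from glycerol-cushion centrifugation was gamma-counted, giving NSB-corrected binding as % of control specific binding.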
# [2] = biological target: T1, p75^NTR receptors (PC12 cells) (Rattus norvegicus, UniProt P07174); assay: Basic screening assay: binding of 125I-BDNF to PC12 cells; details: read-out: BDNF Activity % Maximal Binding
# T1 construct: endogenous in cells; host or cells: PC12 cells
# T1 sequence (P07174 30-425): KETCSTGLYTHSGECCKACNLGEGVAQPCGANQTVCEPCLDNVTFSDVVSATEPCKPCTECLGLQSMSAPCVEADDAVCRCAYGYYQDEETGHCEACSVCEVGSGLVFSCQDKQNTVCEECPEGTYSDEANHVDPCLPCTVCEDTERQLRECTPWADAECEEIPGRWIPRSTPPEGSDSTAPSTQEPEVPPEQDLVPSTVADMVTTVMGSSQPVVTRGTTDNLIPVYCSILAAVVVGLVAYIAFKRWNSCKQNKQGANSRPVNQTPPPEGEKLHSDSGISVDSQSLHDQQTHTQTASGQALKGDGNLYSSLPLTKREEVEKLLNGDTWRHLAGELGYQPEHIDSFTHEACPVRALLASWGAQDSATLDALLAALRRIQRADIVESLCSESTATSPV
# T1 sequence (P23560 129-247 partner): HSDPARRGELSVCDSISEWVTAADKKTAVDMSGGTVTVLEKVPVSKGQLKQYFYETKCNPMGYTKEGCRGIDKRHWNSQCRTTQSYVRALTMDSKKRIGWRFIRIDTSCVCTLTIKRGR
# How it was run: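 4×10^6 PC12 cells incubated 2 h at 4° C, rotating, with 0.5 nM ^125I-BDNF (final) and compound at 50 μM, in duplicate or more. Bound ligand separated through 10% glycerol by centrifugation and counted by gamma counter; specific binding is Bmax minus NSB; inhibitors followed up for EC50.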
# [3] = Table 4, test compound 50 μM, 0.5 nM 125I-BDNF, PC12 cells, 2 h at 4° C., specific binding as percent of control
# [4] = Table 2, test compound 50 μM, 0.5 nM 125I-BDNF, PC12 cells, 2 h at 4° C., specific binding as percent of control
# [5] = Table 1, test compound 50 μM, 0.5 nM 125I-BDNF, PC12 cells, 2 h at 4° C., specific binding as percent of control
Structure (SMILES),NGF Activity % Maximal Binding ([1]; Table 4),"activity at 50 µM [2, 3] [%]",NGF Activity % Maximal Binding ([1]; Table 2),NGF Activity % Maximal Binding ([1]; Table 1),other results
"CCc1ccc(N2NC(=O)/C(=C/c3ccc(-c4ccc(S(N)(=O)=O)cc4)o3)C2=O)cc1 [Compound 104, 4-{5-[1-(4-Ethylphenyl)-3,5-dioxo-pyrazolidin-4-ylidenemethyl]furan-2-yl}benzenesulfonamide]",* (50 < *),> 50,,,
"O=C1NC(=O)C(=Cc2ccc(-c3ccc(Cl)c(C(=O)O)c3)o2)C(=O)N1 [Compound 75, 2-Chloro-5-[5-(2,4,6-trioxo-tetrahydro-pyrimidin-5-ylidenemethyl)furan-2-yl]benzoic acid]",,,X (40 < X < 50),,activity at 50 µM [2]: 0 to 10%
"CCN1C(=O)S/C(=C/c2ccc(-c3ccc(C(=O)O)cc3)o2)C1=O [Compound 73, 4-[5-(3-Ethyl-2,4-dioxo-thiazolidin-5-ylidenemethyl)furan-2-yl]benzoic acid]",,,X (40 < X < 50),,"activity at 50 µM [2, 4]: 0 to 10%"
"CSC1=NC(=Cc2ccc(-c3ccc([N+](=O)[O-])cc3)o2)C(=O)S1 [Compound 111, 2-Methylsulfanyl-4-[5-(4-nitrophenyl)furan-2-ylmethylene]-4H-thiazol-5-one]",* (50 < *),> 50,,,
"CCOC(=O)c1ccc(-c2ccc(/C=C3/SC(=S)N(CC(=O)O)C3=O)o2)cc1 [Compound 68, 4-[5-(3-Carboxymethyl-4-oxo-2-thioxo-thiazolidin-5-ylidenemethyl)furan-2-yl]benzoic acid ethyl ester]",,,XX (30 < XX < 40),,"activity at 50 µM [2, 4]: 0 to 10%"
"Cc1ccc(-c2ccc(/C=C3/NC(=O)N(Cc4ccccc4F)C3=O)o2)cc1[N+](=O)[O-] [Compound 129, 3-(2-Fluorobenzyl)-5-[5-(4-methyl-3-nitrophenyl)furan-2-ylmethylene]-imidazolidine-2,4-dione]",* (50 < *),> 50,,,
"COC(=O)c1ccc(-c2ccc(/C=C3\C(=O)NC(=O)N(Cc4ccccc4)C3=O)o2)cc1 [Compound 32, 4-[5-(1-benzyl-2,4,6-trioxo-tetrahydro-pyrimidin-5-ylidenemethyl)furan-2-yl]benzoic acid methyl ester]",,,,* (50 < *),activity at 50 µM [2]: 10 to 20%
"CCOC(=O)c1ccc(N2NC(=O)/C(=C/c3ccc(-c4cccc(C(=O)O)c4)o3)C2=O)cc1 [Compound 57, 3-{5-[3,5-Dioxo-1-phenyl-(4-ethyl ester)-pyrazolidin-4-ylidenemethyl]furan-2-yl}benzoic acid]",,,,* (50 < *),"activity at 50 µM [2, 5]: 40 to 50%"
"CCOC(=O)CN1C(=O)S/C(=C/c2ccc(-c3ccc([N+](=O)[O-])cc3OC)o2)C1=O [Compound 118, {5-[5-(2-Methoxy-4-nitrophenyl)furan-2-ylmethylene]-2,4-dioxo-thiazolidin-3-yl}-acetic acid ethyl ester]",* (50 < *),> 50,,,
"COc1cc([N+](=O)[O-])ccc1-c1ccc(C=C2C(=O)NN(c3cccc(C)c3)C2=O)o1 [Compound 138, 4-[5-(2-Methoxy-4-nitrophenyl)furan-2-ylmethylene]-1-m-tolyl-pyrazolidine-3,5-dione]",* (50 < *),> 50,,,
"CCOC(=O)CN1C(=O)S/C(=C/c2ccc(-c3cccc([N+](=O)[O-])c3)o2)C1=O [Compound 116, {5-[5-(3-Nitrophenyl)furan-2-ylmethylene]-2,4-dioxo-thiazolidin-3-yl}-acetic acid ethyl ester]",* (50 < *),> 50,,,
"CN1C(=O)/C(=C/c2ccc(-c3ccc(S(N)(=O)=O)cc3)o2)SC1=S [Compound 45, 4-[5-(3-Methyl-4-oxo-2-thioxo-thiazolidin-5-ylidenemethyl)furan-2-yl]benzenesulfonamide]",,,,* (50 < *),"activity at 50 µM [2, 5]: 30 to 40%"
"CN1C(=O)NC(=O)/C(=C/c2ccc(-c3cccc(C(=O)O)c3)o2)C1=O [Compound 77, 3-[5-(1-Methyl-2,4,6-trioxo-tetrahydro-pyrimidin-5-ylidenemethyl)furan-2-yl]benzoic acid]",,,XXX (20 < XXX < 30),,activity at 50 µM [2]: 10 to 20%
"CN1C(=O)NC(=O)C(=Cc2ccc(-c3cccc([N+](=O)[O-])c3)o2)C1=O [Compound 78, 1-Methyl-5-[5-(3-nitrophenyl)furan-2-ylmethylene]-pyrimidine-2,4,6-trione]",,,X (40 < X < 50),,activity at 50 µM [2]: 10 to 20%
"O=C1NC(=O)C(=Cc2ccc(-c3ccc([N+](=O)[O-])cc3Cl)o2)C(=O)N1 [Compound 11, 5-[5-(2-Chloro-4-nitrophenyl)furan-2-ylmethylene]-pyrimidine-2,4,6-trione]",,,,* (50 < *),activity at 50 µM [2]: 0 to 10%
"Cc1ccc(-c2ccc(/C=C3/NC(=O)NC3=O)o2)cc1[N+](=O)[O-] [Compound 114, 5-[5-(4-Methyl-3-nitrophenyl)furan-2-ylmethylene]-imidazolidine-2,4-dione]",* (50 < *),> 50,,,
"O=C(O)c1ccc(-c2ccc(/C=C3/NC(=O)N(c4cccc(Cl)c4)C3=O)o2)cc1Cl [Compound 36, 2-Chloro-4-{5-[1-(3-chlorophenyl)-2,5-dioxo-imidazolidin-4-ylidenemethyl]furan-2-yl}benzoic acid]",,,,* (50 < *),"activity at 50 µM [2, 5]: 10 to 20%"
"O=C1NC(=S)N(c2ccc(F)cc2)C(=O)/C1=C\c1ccc(-c2cccc([N+](=O)[O-])c2)o1 [Compound 70, 1-(4-Fluorophenyl)-5-[5-(3-nitrophenyl)furan-2-ylmethylene]-2-thioxo-dihydro-pyrimidine-4,6-dione]",,,X (40 < X < 50),,activity at 50 µM [2]: 0 to 10%
"Cc1cc([N+](=O)[O-])ccc1-c1ccc(/C=C2/C(=O)NC(=O)N(C)C2=O)o1 [Compound 53, 1-Methyl-5-[5-(2-methyl-4-nitrophenyl)furan-2-ylmethylene]-pyrimidine-2,4,6-trione]",,,,* (50 < *),activity at 50 µM [2]: 30 to 40%
"NS(=O)(=O)c1cccc(-c2ccc(/C=C3/SC(=S)N(CC(=O)O)C3=O)o2)c1 [Compound 74, {4-oxo-5-[5-(3-sulfamoylphenyl)furan-2-ylmethylene]-2-thioxo-thiazolidin-3-yl}-acetic acid]",,,X (40 < X < 50),,"activity at 50 µM [2, 4]: 0 to 10%"
"COc1ccc(-c2ccc(/C=C3\SC(=S)NC3=O)o2)cc1[N+](=O)[O-] [Compound 20, 5-[5-(4-Methoxy-3-nitrophenyl)furan-2-ylmethylene]-2-thioxo-thiazolidin-4-one]",,,,* (50 < *),"activity at 50 µM [2, 5]: 0 to 10%"
"Cc1ccc(C(=O)O)cc1-c1ccc(/C=C2/NC(=O)NC2=O)o1 [Compound 22, 3-[5-(2,5-Dioxo-imidazolidin-4-ylidenemethyl)furan-2-yl]-4-methylbenzoic acid]",,,,* (50 < *),"activity at 50 µM [2, 5]: 0 to 10%"
"CSC1=NC(=Cc2ccc(-c3cccc([N+](=O)[O-])c3)o2)C(=O)S1 [Compound 112, 2-Methylsulfanyl-4-[5-(3-nitrophenyl)furan-2-ylmethylene]-4H-thiazol-5-one]",* (50 < *),> 50,,,
"CC1=NN(c2ccc(F)cc2)C(=O)/C1=C\c1ccc(-c2ccc(C(=O)O)cc2)o1 [Compound 49, 4-{5-[1-(4-Fluorophenyl)-3-methyl-5-oxo-1,5-dihydro-pyrazol-4-ylidenemethyl]furan-2-yl}benzoic acid]",,,,* (50 < *),"activity at 50 µM [2, 5]: 30 to 40%"
"O=C1NC(=S)N/C1=C/c1ccc(-c2ccc(C(=O)O)c(Cl)c2)o1 [Compound 108, 2-Chloro-4-[5-(5-oxo-2-thioxo-imidazolidin-4-ylidenemethyl)furan-2-yl]benzoic acid]",* (50 < *),> 50,,,
"COC(=O)CN1C(=O)S/C(=C/c2ccc(-c3ccc(C(=O)O)c(Cl)c3)o2)C1=O [Compound 67, 2-Chloro-4-[5-(3-methoxycarbonylmethyl-2,4-dioxo-thiazolidin-5-ylidenemethyl)furan-2-yl]benzoic acid]",,,XX (30 < XX < 40),,"activity at 50 µM [2, 4]: 0 to 10%"
